Data on 1 molecule can be found in article PMC4503950, “EGCG reverses human neutrophil elastase-induced migration in A549 cells by directly binding to HNE and by regulating α1-AT” (Scientific Reports, 2015).

The test concerns the target T1, human neutrophil elastase (HNE) (Homo sapiens, UniProt P08246).
T1 construct: gene ELANE; Recombinant HNE protein (molecular mass, 25 kDa)
T1 sequence (P08246 30-247): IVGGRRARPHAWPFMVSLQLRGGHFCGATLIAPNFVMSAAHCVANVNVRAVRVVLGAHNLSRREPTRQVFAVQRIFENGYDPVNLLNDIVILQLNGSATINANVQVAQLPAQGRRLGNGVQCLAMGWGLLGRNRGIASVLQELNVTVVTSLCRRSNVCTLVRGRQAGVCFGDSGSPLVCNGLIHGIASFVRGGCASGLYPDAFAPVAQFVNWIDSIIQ
Nature of the test: SPR (Biacore […], HNE immobilized on CM5 chip, […] Langmuir fit); also enzyme inhibition with IC50 […]. The format is binding.

For `O=C(OC1Cc2c(O)cc(O)cc2OC1c1cc(O)c(O)c(O)c1)c1cc(O)c(O)c(O)c1` (stereo not shown) [EGCG], the Kd came out at 41.4 µM.
